Experimental data taken from the NIST ThermoML archive (doi:10.1016/j.jct.2015.01.001).
Values joined by “and” are separate entries in the source; they are usually repeats but may differ in a detail not shown here. Identical values can stand only once.

How the values were obtained:
[1] = Liquid; for viscosity: Falling or rolling sphere viscometry; for mass density: Vibrating tube method; for vapor or sublimation pressure: Closed cell (Static) method
[2] = xn = mol fraction of the nth substance listed; conditions: Liquid; for viscosity: Falling or rolling sphere viscometry; for mass density: Vibrating tube method

O=S1(=O)CCCC1 [sulfolane]
[1]
Conditions | mass density [kg/m3] | viscosity
303.15 K | 1262 | 10.3 mPa·s and 10.2 mPa·s
313.15 K | 1253 | 8.01 mPa·s
323.15 K | 1244 | 6.32 mPa·s
333.15 K | 1235 | 5.16 mPa·s
343.15 K | 1226 | 4.22 mPa·s
353.15 K | 1218 | 3.5 mPa·s
363.15 K | 1209 | 2.92 mPa·s

O=C=O [carbon dioxide] + CO
[2]
Conditions | mass density [kg/m3] | viscosity [mPa·s]
298.15 K, 467.6 kPa, x1 = 0.037 | 792.7 | 0.523
298.15 K, 1827.6 kPa, x1 = 0.155 | 811.4 | 0.45
298.15 K, 2059.2 kPa, x1 = 0.176 | 814.6 | 0.436
298.15 K, 2411.7 kPa, x1 = 0.207 | 819.5 | 0.418
298.15 K, 2609.8 kPa, x1 = 0.225 | 822.2 | 0.407
298.15 K, 3070.8 kPa, x1 = 0.268 | 828.6 | 0.383
303.15 K, 514.4 kPa, x1 = 0.034 | 787 | 0.497
303.15 K, 1357.8 kPa, x1 = 0.099 | 796.3 | 0.459
303.15 K, 2202.1 kPa, x1 = 0.164 | 805.7 | 0.421
303.15 K, 2582.4 kPa, x1 = 0.194 | 809.9 | 0.403
303.15 K, 2803.7 kPa, x1 = 0.212 | 812.4 | 0.392
303.15 K, 3272.7 kPa, x1 = 0.249 | 817.7 | 0.37
308.15 K, 543.8 kPa, x1 = 0.032 | 783.2 | 0.467
308.15 K, 1454.6 kPa, x1 = 0.094 | 791.6 | 0.434
308.15 K, 2129.6 kPa, x1 = 0.14 | 797.9 | 0.408
308.15 K, 2391.6 kPa, x1 = 0.158 | 800.3 | 0.398
308.15 K, 2760.3 kPa, x1 = 0.184 | 803.7 | 0.385
308.15 K, 3001.7 kPa, x1 = 0.201 | 806 | 0.375
308.15 K, 3529.4 kPa, x1 = 0.238 | 810.9 | 0.356
313.15 K, 629.5 kPa, x1 = 0.031 | 777.5 | 0.443
313.15 K, 1587.2 kPa, x1 = 0.091 | 787.1 | 0.41
313.15 K, 2265.6 kPa, x1 = 0.133 | 793.6 | 0.39
313.15 K, 2523.6 kPa, x1 = 0.149 | 796 | 0.378
313.15 K, 2943.3 kPa, x1 = 0.175 | 800.1 | 0.368
313.15 K, 3205.9 kPa, x1 = 0.191 | 802.6 | 0.356
313.15 K, 3774.9 kPa, x1 = 0.227 | 808 | 0.337

CO [methanol]
[1]
Conditions | mass density [kg/m3] | vapor or sublimation pressure [kPa] | viscosity [mPa·s]
298.15 K | 786.7 | 17 | 0.544
303.15 K | 782 | 21.9 | 0.512
308.15 K | 777.3 | 27.9 | 0.486
313.15 K | 772.5 | 35.6 | 0.46

CO [methanol] + O=C=O
[2], x2 = 0
Conditions | mass density [kg/m3] | viscosity [mPa·s]
298.15 K, 17 kPa | 786.7 | 0.544
303.15 K, 21.9 kPa | 782 | 0.512
308.15 K, 27.9 kPa | 777.3 | 0.486
313.15 K, 35.6 kPa | 772.5 | 0.46
